These results are taken from PubChem BioAssay (NCI).

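Dose response: 5 concentrations. Exposure: 48 h. Format: 96-well plates. Endpoint: linear interpolation; highest concentration if not reached. Definition used: TGI = concentration required for complete inhibition of growth.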 Bounds are passed on as bounds.

Test systems include MCF7 breast; HOP-92 NSCLC; OVCAR-5 ovarian; RXF 393 renal; SN12C renal; HS 578T breast; MALME-3M melanoma; HL-60(TB) leukemia; OVCAR-8 ovarian; SK-MEL-5 melanoma; MDA-MB-435; COLO 205 colon; KM12 colon; NCI/ADR-RES ovarian; SK-MEL-28 melanoma; RPMI-8226 leukemia; UACC-62 melanoma; XF 498 CNS; DLD-1 colon; HOP-18 NSCLC.
Holding throughout (assay): growth of human tumour cells (NCI), 48 h

With `C=CCn1c(=O)ccn(COCCO)c1=O`, the TGI with MCF7 breast, with HOP-92 NSCLC, in the assay on OVCAR-5 ovarian, in the assay on RXF 393 renal, with SN12C renal and in the assay on HS 578T breast was more than 100 µM each time. For the same compound, the TGI in the assay on MALME-3M melanoma, in the assay on HL-60(TB) leukemia, with OVCAR-8 ovarian, with SK-MEL-5 melanoma, in the assay on MDA-MB-435 and in the assay on COLO 205 colon was more than 100 µM in each case. Moreover, the TGI in the assay on KM12 colon, in the assay with NCI/ADR-RES ovarian, in the assay on SK-MEL-28 melanoma and in the assay with RPMI-8226 leukemia was more than 100 µM in each case.

For the compound `O=C(N=Nc1cc(Cl)ccc1Cl)NNc1cc(Cl)ccc1Cl`, the TGI was 36.4 µM in the assay on MCF7 breast; 32.9 µM with HOP-92 NSCLC; 39.8 µM in the assay on OVCAR-5 ovarian; 25 µM with RXF 393 renal; 52.5 µM with SN12C renal; 52.6 µM with HS 578T breast. Further, the TGI with UACC-62 melanoma was 27 µM; in the assay on MALME-3M melanoma, 82.1 µM; with HL-60(TB) leukemia it was 32.4 µM; in the assay on OVCAR-8 ovarian it was more than 100 µM; in the assay on SK-MEL-5 melanoma, 25.3 µM; with MDA-MB-435, 30 µM. In addition, the TGI with COLO 205 colon was found to be 41.1 µM; with KM12 colon it was 33.9 µM; in the assay on NCI/ADR-RES ovarian it was 61.2 µM; in the assay on SK-MEL-28 melanoma, 61.2 µM; with RPMI-8226 leukemia, 33.8 µM.

In the case of `O=S(=O)(O)c1cc2ccc1/C=C\c1ccc(cc1S(=O)(=O)O)N=Nc1ccc(c(S(=O)(=O)O)c1)/C=C\c1ccc(cc1S(=O)(=O)O)N=N2`, the TGI in the assay on MCF7 breast, with HOP-92 NSCLC, in the assay with OVCAR-5 ovarian, with RXF 393 renal, with SN12C renal and in the assay on UACC-62 melanoma was more than 100 µM throughout. For the same compound, the TGI in the assay on MALME-3M melanoma, in the assay with HL-60(TB) leukemia, with OVCAR-8 ovarian, in the assay with SK-MEL-5 melanoma, in the assay on XF 498 CNS and in the assay with COLO 205 colon was more than 100 µM throughout. Also, the TGI in the assay on KM12 colon, in the assay with NCI/ADR-RES ovarian, with SK-MEL-28 melanoma, with RPMI-8226 leukemia, with DLD-1 colon and in the assay on HOP-18 NSCLC was more than 100 µM in each case.

`O=c1ccc2cc3ccc4cccc5ccc(c2o1)c3c45`: the TGI with HOP-92 NSCLC, with SN12C renal, with UACC-62 melanoma, in the assay with MALME-3M melanoma, in the assay with HL-60(TB) leukemia and in the assay on OVCAR-8 ovarian was more than 100 µM each time. The TGI in the assay on SK-MEL-5 melanoma was more than 100 µM; in the assay with XF 498 CNS, 56.8 µM; in the assay with COLO 205 colon, more than 100 µM; in the assay on SK-MEL-28 melanoma it was more than 100 µM; with RPMI-8226 leukemia it was more than 100 µM; in the assay with DLD-1 colon, more than 100 µM. The TGI in the assay with HOP-18 NSCLC is more than 100 µM.

As for `COc1ccc2nc3cc(Cl)ccc3c(NCCCNCCCNc3c4ccc(Cl)cc4nc4ccc(OC)cc34)c2c1`, the TGI with MCF7 breast was found to be 0.157 µM; in the assay with HOP-92 NSCLC, 0.347 µM; in the assay with OVCAR-5 ovarian, 0.237 µM; with RXF 393 renal, 0.453 µM; with SN12C renal, 0.285 µM; in the assay on UACC-62 melanoma, 0.189 µM. The TGI was 1.22 µM with MALME-3M melanoma; 23.2 µM in the assay on HL-60(TB) leukemia; 0.158 µM in the assay on COLO 205 colon; more than 22.8 µM in the assay on NCI/ADR-RES ovarian; 27.7 µM with RPMI-8226 leukemia.

For the compound `COc1nc(C#CCC(C)O)nc(OC)n1` (stereo not given), the TGI was 33.5 µM with MCF7 breast; 33.3 µM in the assay with OVCAR-5 ovarian; 24.2 µM in the assay on RXF 393 renal; 42.5 µM in the assay with SN12C renal; 72 µM in the assay on HS 578T breast; 37.3 µM in the assay on UACC-62 melanoma. For the same compound, the TGI was determined as 25.6 µM in the assay on MALME-3M melanoma; 94.6 µM with HL-60(TB) leukemia; 39.5 µM in the assay with OVCAR-8 ovarian; 34.7 µM in the assay on SK-MEL-5 melanoma; 54.6 µM with MDA-MB-435; 56.8 µM in the assay with COLO 205 colon. Further, the TGI was 82 µM with KM12 colon, 43.5 µM with NCI/ADR-RES ovarian and more than 100 µM in the assay with SK-MEL-28 melanoma.

Take `CCOC(=O)/C=C(\C)c1ccc(C)cc1C`: the TGI in the assay with HOP-92 NSCLC was 63.8 µM; in the assay with OVCAR-5 ovarian, more than 100 µM; in the assay with RXF 393 renal, 27.7 µM; in the assay with SN12C renal, more than 100 µM; with MALME-3M melanoma, 53.9 µM; with HL-60(TB) leukemia, 11.9 µM. In addition, the TGI in the assay with OVCAR-8 ovarian was more than 100 µM; in the assay on SK-MEL-5 melanoma it was more than 100 µM; in the assay on XF 498 CNS, 43.2 µM; in the assay with COLO 205 colon, more than 100 µM; in the assay with KM12 colon, more than 100 µM; with SK-MEL-28 melanoma, 51.8 µM. Also, the figures for the TGI with RPMI-8226 leukemia, in the assay with DLD-1 colon and with HOP-18 NSCLC were 68.2 µM, 31.5 µM and more than 100 µM, respectively.
